# Where two headings read alike, the source gives them in different places. Non-standard residues stand in square brackets, D forms with d. Residues, ends and D or L forms follow the SMILES beside them. NMeL = CN[C@@H](CC(C)C)C(=O)O
# How the values were obtained:
# [1] = tested on: S. aureus (MRSA) ATCC 33591; format: cell-based, Staphylococcus aureus; conditions: for MRSA MIC / S. aureus (MRSA) MIC: ATCC 33591; for MRSA (in vitro activity): Table 9
# Method in brief: (§1)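 MIC read from NCCLS-style broth dilution. Peptide concentrations were set by quantitative HPLC or Trp UV absorbance at 280 nm, then serially halved from about 400 to 2 μg/ml in 5% DMSO/9% sucrose. Inoculum: approximately 2.5×10^5 cfu/ml.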
# [2] = tested on: vancomycin-resistant Enterococus faecalis (VRE)(ATCC 51575); format: cell-based, Enterococcus faecalis; design: key to VRE (in vitro activity): peptide concentration in μg/ml (broth dilution assay); conditions: for VRE MIC: ATCC 51575; for VRE (in vitro activity): Table 9
# Method in brief: as §1
# [3] = tested on: Bacillus cereus ATCC 11778; format: cell-based
# Procedure: (§2) The antimicrobial activity of the peptides was determined using a broth dilution assay essentially as descried in the guidelines of the National Committee for […] (NCCLS) [National Committee for Clinical Laboratory Standards. Methods for dilution antimicrobial susceptibility tests for bacteria that grow aerobically. Fourth edition. Approved Standard (1997). Document M7-A4. […] The microdilution method has the advantages of requiring less amount of peptide for each assay and the possibility of multiple simultaneous inoculations and was used in most studies. Several of the strains of bacteria tested are further described in Table 3.
# (§3) Preparation of peptide solutions. Stock peptide solutions were prepared in 5% DMSO in aq. sucrose (9%). Determination of peptide concentrations was done by quantitative HPLC analysis using known concentrations of internal standards and/or by measuring UV absorption of tryptophane-containing peptide solutions in H2O (λ=280 εTrp: 5690). Serial 2-fold dilutions were made in the above DMSO/aq. sucrose (9%) mixture with concentrations ranging approximately 400-2 μg/ml and aliquots were dispensed in test tubes (100 μl) for the macrodilution test or in microtiter plates (20 μl) for the microdilution assays.
# (§4) Inoculum preparation. Overnight cultures of different microorganisms grown in suitable media were diluted 4000 times to an approximate inoculum size of 2.5×10^5 cfu/ml.
# (§5) Macrodilution method. Macrodilution methods were performed using procedures similar to those described in the National Committee for Clinical Laboratory Standards. Methods for dilution antimicrobial susceptibility tests for bacteria that grow aerobically. Fourth edition. Approved Standard (1997). Document M7-A4. (NCCLS,Villanova, Pa., 1997). Two ml aliquots of the above inoculum were dispensed to test tubes containing different peptide solutions.
# (§6) Microdilution method. Microdilution methods were performed using procedures similar to those described in the National Committee for Clinical Laboratory Standards. Methods for dilution antimicrobial susceptibility tests for bacteria that grow aerobically. Fourth edition. Approved Standard (1997). Document M7-A4.
# [4] = tested on: Streptococcus pneumoniae (ATCC 6301); format: cell-based
# Procedure: as §2, §3, §4, §5, §6
# E. coli JM109(DE3) = format: cell-based, Escherichia coli; conditions: JM109
# Procedure: as §2, §3, §4, §5, §6
# murine red blood cells = test: Red blood cell hemolysis; format: cell-based, mouse
# Method in brief: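 Washed murine erythrocytes at 5% in saline with 10% FBS were exposed to serial peptide dilutions for 30 min at 37° C. Supernatant absorbance at 560 nm was read, with saline as 0% and 1% Triton X-100 as 100% hemolysis.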
# [5] = media a: anti-microbial media-3 (AM-3)
# [6] = media b: cation adjusted Meuller Hinton broth (MHBII)
# [7] = media c: Brain Heart Infusion (BHI)
MRSA MIC [1],VRE MIC [2],B. cerius MIC [3],S. pneum. MIC [4],SMILES,"MRSA (in vitro activity) [1, 5]",RBC Hemolysis (HD50) (murine red blood cells),VRE (in vitro activity) ([2]; media a: AM-3),"MRSA (in vitro activity) [1, 6]","VRE (in vitro activity) [2, 7]",also measured
100 µg/mL,100 µg/mL,> 140 µg/mL,100 µg/mL,"CC(C)C[C@H]1NC(=O)[C@H](CCC(=O)O)NC(=O)[C@@H](CCCCN)NC(=O)[C@H](Cc2c[nH]c3ccccc23)NC(=O)[C@@H](CC(C)C)NC(=O)[C@H](Cc2c[nH]c3ccccc23)NC(=O)[C@@H](CC(C)C)NC(=O)[C@H](Cc2c[nH]c3ccccc23)NC1=O [SEQ ID NO:143, [KELWLWLW]] (cyclo([dK]E[dL]W[dL]W[dL]W))",–,–,–,–,–,–
60 µg/mL,100 µg/mL,340 µg/mL,100 µg/mL,"CC(C)C[C@@H](NC(=O)[C@H](Cc1c[nH]c2ccccc12)NC(=O)[C@@H](CC(C)C)NC(=O)[C@H](Cc1c[nH]c2ccccc12)NC(=O)[C@@H](CCCCN)NC(=O)[C@H](CCCCN)NC(=O)[C@@H](CCCCN)NC(=O)[C@@H](N)Cc1c[nH]c2ccccc12)C(=O)O [SEQ ID NO:144, H-WKKKWLWL-OH] (H-W[dK]K[dK]W[dL]W[dL]-OH)",–,–,–,–,–,–
–,–,–,–,"CC(C)C[C@H]1NC(=O)[C@H](Cc2c[nH]c3ccccc23)NC(=O)[C@@H](CCCNC(=N)N)NC(=O)[C@H](CCCNC(=N)N)NC(=O)[C@@H](CCCNC(=N)N)NC(=O)[C@H](Cc2c[nH]c3ccccc23)NC(=O)[C@@H](CC(C)C)NC(=O)[C@H](Cc2c[nH]c3ccccc23)NC1=O [SEQ ID NO:20, RRRWLWLW] (cyclo([dR]R[dR]W[dL]W[dL]W))",–,–,–,–,–,S. aureus (MRSA) MIC [1]: 10 µg/mL; E. coli MIC (E. coli JM109(DE3)): 50 µg/mL; Hemolysis HD50 (murine red blood cells; red cells of murine): 35 µg/mL
10 µg/mL,100 µg/mL,8 µg/mL,10 µg/mL,"CC(C)C[C@H]1C(=O)N[C@H](Cc2c[nH]c3ccccc23)C(=O)N(C)[C@@H](CC(C)C)C(=O)N[C@H](Cc2c[nH]c3ccccc23)C(=O)N[C@@H](CCCCN)C(=O)N[C@H](CCC(N)=O)C(=O)N[C@@H](CCCNC(=N)N)C(=O)N[C@H](Cc2c[nH]c3ccccc23)C(=O)N1C [SEQ ID NO:140, c[KQRW^MeLW^MeLW]] (cyclo(K[dQ]R[dW][NMeL][dW][NMeL][dW]))",–,–,–,–,–,–
10 µg/mL,10 µg/mL,< 1 µg/mL,4 µg/mL,"CC(C)C[C@H]1NC(=O)[C@H](Cc2c[nH]c3ccccc23)NC(=O)[C@@H](CCCNC(=N)N)NC(=O)[C@H](CCC(N)=O)NC(=O)[C@@H](CCCNC(=N)N)NC(=O)[C@H](Cc2c[nH]c3ccccc23)NC(=O)[C@@H](CC(C)C)NC(=O)[C@H](Cc2c[nH]c3ccccc23)NC1=O [SEQ ID NO:10, RQRWLWLW] (cyclo([dR]Q[dR]W[dL]W[dL]W))",10,25,10,–,–,S. aureus (MRSA) MIC [1]: 18 µg/mL
25 µg/mL,25 µg/mL,13 µg/mL,20 µg/mL,"CC(C)C[C@H]1NC(=O)[C@H](CCCCN)NC(=O)[C@@H](CCCNC(=N)N)NC(=O)[C@H](Cc2c[nH]c3ccccc23)NC(=O)[C@@H](CC(C)C)NC(=O)[C@H](Cc2c[nH]c3ccccc23)NC1=O [SEQ ID NO:141, [RKLWLW]] (cyclo([dR]K[dL]W[dL]W))",–,–,–,–,–,–
–,–,–,–,"CC(C)C[C@H]1NC(=O)[C@H](C)NC(=O)[C@@H](CC(C)C)NC(=O)[C@H](Cc2ccccc2)NC(=O)[C@@H](CC(C)C)NC(=O)[C@H](CCCCN)NC(=O)[C@@H](Cc2c[nH]cn2)NC(=O)[C@H](CCCCN)NC1=O [SEQ ID NO:47, [KHKLFLAL]] (cyclo(K[dH]K[dL]F[dL]A[dL]))",–,>220,–,3,13,–
–,–,–,–,"CC[C@H](C)[C@@H]1NC(=O)[C@@H](CC(C)C)NC(=O)[C@H](CCCCN)NC(=O)[C@@H](CO)NC(=O)[C@H](CCCCN)NC(=O)[C@@H](CC(C)C)NC(=O)[C@H]([C@@H](C)CC)NC(=O)[C@@H](CC(C)C)NC1=O [SEQ ID NO:57, [KSKLILIL]] (cyclo(I[dL]I[dL]K[dS]K[dL]))",–,>200,–,–,>200,"MRSA (in vitro activity) ([1]; media b: cation adjusted Meuller Hinton broth (MHBII), listed as [KSKLILIL] (57)): 200"
–,–,–,–,"CC(C)C[C@@H]1NC(=O)[C@@H](Cc2c[nH]c3ccccc23)NC(=O)[C@H](CCCCN)NC(=O)[C@@H](CO)NC(=O)[C@H](CCCCN)NC(=O)[C@@H](Cc2c[nH]c3ccccc23)NC1=O [SEQ ID NO:126, [KSKWLW]] (cyclo(K[dS]K[dW]L[dW]))",19,>65,38,–,–,–
–,–,–,–,"CC(C)C[C@@H]1NC(=O)[C@@H](Cc2c[nH]c3ccccc23)NC(=O)[C@H](Cc2ccccc2)NC(=O)[C@@H](CCCNC(=N)N)NC(=O)[C@H](CCC(N)=O)NC(=O)[C@@H](CCCNC(=N)N)NC(=O)[C@H](Cc2c[nH]c3ccccc23)NC(=O)[C@@H](Cc2c[nH]c3ccccc23)NC1=O [SEQ ID NO:68, [QRFWLWWR]] (cyclo(Q[dR]F[dW]L[dW]W[dR]))",–,60,–,7.5,–,VRE (in vitro activity) ([2]; media b: MHBII): 3.8
–,–,–,–,"CC(C)C[C@H]1NC(=O)CNC(=O)[C@@H](CC(C)C)NC(=O)[C@H](CCCCN)NC(=O)[C@@H](CO)NC(=O)[C@H](CCCCN)NC(=O)[C@@H](CC(C)C)NC(=O)CNC1=O [SEQ ID NO:56, [KSKLGLGL]] (cyclo(K[dS]K[dL]G[dL]G[dL]))",–,>240,–,>240,>240,–
–,–,–,–,"CC(C)C[C@H]1NC(=O)[C@H](Cc2c[nH]c3ccccc23)NC(=O)[C@@H](Cc2ccccc2)NC(=O)[C@H](CCCCN)NC(=O)[C@@H](Cc2c[nH]c3ccccc23)NC(=O)[C@H](Cc2c[nH]cn2)NC(=O)[C@@H](CC(C)C)NC(=O)[C@H](Cc2c[nH]c3ccccc23)NC1=O [SEQ ID NO:99, [KFWLWLHW]] (cyclo(K[dF]W[dL]W[dL]H[dW]))",21,>25,21,–,–,–
–,–,–,–,"CC(C)C[C@@H]1NC(=O)[C@@H](Cc2c[nH]c3ccccc23)NC(=O)[C@H](CCC(N)=O)NC(=O)[C@@H](CCCCN)NC(=O)[C@H](CCCCN)NC(=O)[C@@H](Cc2c[nH]c3ccccc23)NC1=O [SEQ ID NO:122, [KKQWLW]] (cyclo(K[dK]Q[dW]L[dW]))",27,>215,81,–,–,–
–,–,–,–,"NCCCC[C@@H]1NC(=O)[C@@H](Cc2ccc(O)cc2)NC(=O)[C@H](CCC(N)=O)NC(=O)[C@@H](Cc2ccc(O)cc2)NC(=O)[C@H](CCCCN)NC(=O)[C@@H](CC(N)=O)NC(=O)[C@H](Cc2c[nH]c3ccccc23)NC(=O)[C@@H](CC(N)=O)NC1=O [SEQ ID NO:94, [KYQYKNWN]] (cyclo(K[dN]W[dN]K[dY]Q[dY]))",–,>200,–,>200,>200,–
–,–,–,–,"CC(C)C[C@H]1NC(=O)[C@H](Cc2ccccc2)NC(=O)[C@@H](CCCCN)NC(=O)[C@H](CO)NC(=O)[C@@H](CO)NC(=O)[C@H](CCCCN)NC(=O)[C@@H](CC(C)C)NC(=O)[C@H](Cc2ccccc2)NC1=O [SEQ ID NO:79, [KSSKFLFL]] (cyclo(K[dS]S[dK]F[dL]F[dL]))",–,>200,–,43,43,–
–,–,–,–,"CC(C)C[C@H]1NC(=O)[C@H](Cc2c[nH]c3ccccc23)NC(=O)[C@@H](Cc2c[nH]c3ccccc23)NC(=O)[C@H](CCCCN)NC(=O)[C@@H](Cc2c[nH]c3ccccc23)NC(=O)[C@H](CCCCN)NC(=O)[C@@H](CC(C)C)NC(=O)[C@H](Cc2c[nH]c3ccccc23)NC1=O [SEQ ID NO:44, [KWWLWLKW]] (cyclo(K[dW]W[dL]W[dL]K[dW]))",4,>58,4,–,–,–

# — patent US20050107289A1, “Anti-microbial peptides and compositions” (priority 2001, published 2005)
